ChEMBL document CHEMBL5247653, “Discovery of Clinical Candidate ACT-777991, a Potent CXCR3 Antagonist for Antigen-Driven and Inflammatory Pathologies” (J Med Chem, 2023)
Active and inactive are the calls of the source. No cut-off for these calls is given here.

How the values were obtained:
[1] = biological target: T1, C-X-C chemokine receptor type 3 (Homo sapiens, UniProt P49682); test: Antagonist activity at CXCR3 (unknown origin) in human T cells in venous blood assessed as receptor internalization incubated for 30 mins in presence of CXCL10 by flow cytometric analysis; format: cell-based, T cell
T1 sequence (P49682 whole entry): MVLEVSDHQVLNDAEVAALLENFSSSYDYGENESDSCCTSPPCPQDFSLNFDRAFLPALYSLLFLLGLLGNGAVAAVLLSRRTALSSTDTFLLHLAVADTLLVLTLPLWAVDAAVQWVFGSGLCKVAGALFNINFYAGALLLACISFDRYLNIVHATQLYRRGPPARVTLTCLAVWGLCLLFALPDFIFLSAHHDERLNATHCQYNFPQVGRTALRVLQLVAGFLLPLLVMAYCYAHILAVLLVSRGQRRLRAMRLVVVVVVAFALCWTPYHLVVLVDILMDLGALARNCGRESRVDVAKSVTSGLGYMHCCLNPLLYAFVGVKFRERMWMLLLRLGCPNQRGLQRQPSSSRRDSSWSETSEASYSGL

[2] = biological target: Voltage-gated inwardly rectifying potassium channel KCNH2 (Homo sapiens, UniProt Q12809); test: Inhibition of human ERG stably expressed in CHO cells at -80 mV holding voltage by automated QPatch electrophysiological assay; format: toxicity, cell-based
[3] = biological target: CYP3A4 (Homo sapiens, UniProt P08684); test: […] recombinant human CYP3A4 mediated drug metabolism in human liver microsomes assessed as intrinsic clearance at 1 uM incubated for 45 mins in presence of NADPH regenerating system by LC-MS/MS analysis; format: ADME, Microsome; conditions: read-out: CLH
[4] = Lipophilicity, log D of compound; format: physicochemical; conditions: octanol/water
[5] = Metabolic stability in human hepatocytes assessed as intrinsic clearance per 10^6 cells at 1 uM by LC-MS/MS analysis; format: ADME, cell-based, Hepatocyte
[6] = Metabolic stability in dog hepatocytes assessed as intrinsic clearance per 10^6 cells at 1 uM by LC-MS/MS analysis; format: ADME, cell-based, Canis lupus familiaris, Hepatocyte
[7] = biological target: T2, C-X-C chemokine receptor type 3 (Homo sapiens) (UniProt P49682); test: Binding affinity to human CXCR3 expressed in CHO-K1 cell membrane assessed as […] (Kon) using tritium-labeled ligand by […] assay; format: cell membranes; conditions: filed as antagonist
T2 sequence (whole entry): T1 sequence (P49682 whole entry)

[8] = biological target: T2, C-X-C chemokine receptor type 3 (Homo sapiens); test: Binding affinity to human CXCR3 expressed in CHO-K1 cell membrane assessed as dissociation rate constant (koff) using tritium-labeled ligand by […] assay; format: cell membranes; conditions: filed as antagonist
[9] = biological target: C-C chemokine receptor type 7 (Homo sapiens) (UniProt P32248); test: Binding affinity to CCR7 (unknown origin) at 10 uM by radioligand binding assay
[10] = biological target: N-formyl peptide receptor 2 (Homo sapiens) (UniProt P25090); test: Binding affinity to FPR2 (unknown origin) at 10 uM by radioligand binding assay
[11] = biological target: T3, C-X-C chemokine receptor type 3 (Mus musculus) (UniProt O88410); test: In vivo antagonist activity at CXCR3 in LPS-induced DBA/1 mouse model assessed as reduction in mouse CXCL10-mediated chemotaxis in CD8+ T cells at 0.006 microg/g, po bid preincubated for 3 days followed by LPS stimulation for 30 mins and measured after 3 days by flow cytometry; format: functional, organism-based; set-up: scale not given: the % may be the effect or the level left; conditions: T-cell, dose 0.006 µg/g, time 6.0 day
T3 sequence (whole entry): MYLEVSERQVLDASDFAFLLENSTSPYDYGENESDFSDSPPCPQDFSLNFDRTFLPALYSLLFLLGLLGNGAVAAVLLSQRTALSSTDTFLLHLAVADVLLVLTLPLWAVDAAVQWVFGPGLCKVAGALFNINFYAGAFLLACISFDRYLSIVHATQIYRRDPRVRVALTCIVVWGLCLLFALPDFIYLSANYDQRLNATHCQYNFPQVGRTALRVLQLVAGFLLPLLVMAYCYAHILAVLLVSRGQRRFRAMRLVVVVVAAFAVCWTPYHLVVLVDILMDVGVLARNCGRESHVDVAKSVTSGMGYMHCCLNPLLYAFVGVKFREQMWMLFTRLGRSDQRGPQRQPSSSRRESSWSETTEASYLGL

[12] = biological target: T3, C-X-C chemokine receptor type 3 (Mus musculus); test: In vivo antagonist activity at CXCR3 in LPS-induced DBA/1 mouse model assessed as reduction in mouse CXCL10-mediated chemotaxis in CD8+ T cells at 0.02 microg/g, po bid preincubated for 3 days followed by LPS stimulation for 30 mins and measured after 3 days by flow cytometry; format: functional, organism-based; set-up: scale not given: the % may be the effect or the level left; conditions: T-cell, dose 0.02 µg/g, time 6.0 day
[13] = Cmin in LPS-induced DBA/1 mouse plasma at 0.02 microg/g, po bid preincubated for 3 days followed by LPS stimulation for 30 mins and measured after 72 hrs by flow cytometry; format: ADME, organism-based; conditions: dose 0.02 µg/g, time 3 day, read-out: Cmin
[14] = biological target: Cytochrome P450 2C9 (Homo sapiens, UniProt P11712); test: Time dependent inhibition of CYP2C9 (unknown origin); format: ADME
[15] = Induction of CYP3A4 mRNA upregulation in human hepatocytes upto 10 uM; format: ADME, cell-based, Hepatocyte
[16] = biological target: Solute carrier organic anion transporter family member 1B3 (Homo sapiens, UniProt Q9NPD5); test: Inhibition of human OATP1B3; format: ADME
[17] = Glutathione reactivity assessed as GSH-adduct formation by dansyl-glutathione trapping assay; format: physicochemical
[18] = Metabolic stability in human hepatocyte assessed as M3 metabolite formation at 1 uM and measured upto 15 mins in presence of NADPH regenerating system by LC-MS/MS analysis; format: ADME, cell-based; conditions: hepatocytes, 0.25 h
[19] = Metabolic stability in human hepatocyte assessed as M1 metabolite formation at 1 uM and measured upto 15 mins in presence of NADPH regenerating system by LC-MS/MS analysis; format: ADME, cell-based; conditions: hepatocytes, 0.25 h
[20] = Metabolic stability in human hepatocyte assessed as M2 metabolite formation at 1 uM and measured upto 15 mins in presence of NADPH regenerating system by LC-MS/MS analysis; format: ADME, cell-based; conditions: hepatocytes, 0.25 h
[21] = Metabolic stability in rat hepatocyte assessed as M2 metabolite formation at 1 uM and measured upto 15 mins in presence of NADPH regenerating system by LC-MS/MS analysis; format: ADME, cell-based; conditions: hepatocytes, 0.25 h
[22] = Metabolic stability in rat hepatocyte assessed as M4 metabolite formation at 1 uM and measured upto 15 mins in presence of NADPH regenerating system by LC-MS/MS analysis; format: ADME, cell-based; conditions: hepatocytes, 0.25 h
[23] = Metabolic stability in dog hepatocyte assessed as M3 metabolite formation at 1 uM and measured upto 15 mins in presence of NADPH regenerating system by LC-MS/MS analysis; format: ADME, cell-based, Canis lupus familiaris; conditions: hepatocytes, 0.25 h
[24] = AUC (0 to last) in Wistar rat at 3 mg/kg,iv or 3 mg/kg, po; format: ADME, organism-based; set-up: dose 3 mg/kg, route iv; conditions: in vivo
[25] = AUC (0 to last) in Beagle dog at 2.5 mg/kg,iv or 2.5 mg/kg, po; format: ADME, organism-based, Canis lupus familiaris; set-up: dose 2.5 mg/kg, route iv; conditions: in vivo
[26] = Cmax in Beagle dog at 2.5 mg/kg,iv or 2.5 mg/kg, po; format: ADME, organism-based, Canis lupus familiaris; set-up: dose 2.5 mg/kg, route iv; conditions: in vivo
[27] = Oral bioavailability in Beagle dog at 2.5 mg/kg; format: ADME, organism-based, Canis lupus familiaris; conditions: in vivo
[28] = In vivo inhibition of hERG in iv dosed dog assessed as change in PR interval; format: toxicity, organism-based, Canis lupus familiaris
[29] = In vivo inhibition of hERG in iv dosed dog assessed as change in QRS interval; format: toxicity, organism-based, Canis lupus familiaris
[30] = Genotoxicity in Salmonella typhimurium TA98 at 5000 ug; format: toxicity; conditions: salmonella enterica subsp. enterica serovar typhimurium; dose 5000 µg

Sequence of CYP3A4 (P08684 whole entry): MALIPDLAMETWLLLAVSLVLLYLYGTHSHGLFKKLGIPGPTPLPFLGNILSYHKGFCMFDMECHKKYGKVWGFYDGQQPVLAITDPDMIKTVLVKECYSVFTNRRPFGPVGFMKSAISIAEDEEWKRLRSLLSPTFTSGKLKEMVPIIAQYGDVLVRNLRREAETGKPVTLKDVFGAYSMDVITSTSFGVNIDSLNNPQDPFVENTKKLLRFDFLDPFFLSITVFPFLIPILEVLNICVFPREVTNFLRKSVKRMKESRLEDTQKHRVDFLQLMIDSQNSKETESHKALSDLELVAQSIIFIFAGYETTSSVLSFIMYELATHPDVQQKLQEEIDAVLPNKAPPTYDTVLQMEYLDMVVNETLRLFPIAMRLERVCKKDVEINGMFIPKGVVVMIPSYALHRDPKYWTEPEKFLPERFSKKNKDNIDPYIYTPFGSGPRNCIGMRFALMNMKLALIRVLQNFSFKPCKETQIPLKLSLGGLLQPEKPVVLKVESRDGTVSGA
Sequence of Solute carrier organic anion transporter family member 1B3 (Q9NPD5 whole entry): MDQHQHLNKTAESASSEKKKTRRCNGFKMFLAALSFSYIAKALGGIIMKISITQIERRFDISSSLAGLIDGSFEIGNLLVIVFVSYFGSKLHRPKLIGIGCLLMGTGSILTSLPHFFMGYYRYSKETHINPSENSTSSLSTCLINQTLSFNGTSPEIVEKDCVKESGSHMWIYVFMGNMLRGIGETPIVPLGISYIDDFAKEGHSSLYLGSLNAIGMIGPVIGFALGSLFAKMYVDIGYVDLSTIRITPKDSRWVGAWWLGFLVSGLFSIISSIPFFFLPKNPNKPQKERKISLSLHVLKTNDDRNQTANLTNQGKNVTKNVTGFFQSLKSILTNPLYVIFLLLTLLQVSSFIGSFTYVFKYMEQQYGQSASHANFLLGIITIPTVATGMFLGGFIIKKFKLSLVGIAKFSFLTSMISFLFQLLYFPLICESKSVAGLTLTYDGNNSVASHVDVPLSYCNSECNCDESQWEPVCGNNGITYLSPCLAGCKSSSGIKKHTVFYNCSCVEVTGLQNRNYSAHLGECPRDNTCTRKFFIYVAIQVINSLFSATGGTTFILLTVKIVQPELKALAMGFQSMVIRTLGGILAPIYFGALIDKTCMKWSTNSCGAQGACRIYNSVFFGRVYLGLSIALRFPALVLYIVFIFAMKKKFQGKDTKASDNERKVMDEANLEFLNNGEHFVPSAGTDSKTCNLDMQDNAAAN
Sequence of N-formyl peptide receptor 2 (Homo sapiens) (P25090 whole entry): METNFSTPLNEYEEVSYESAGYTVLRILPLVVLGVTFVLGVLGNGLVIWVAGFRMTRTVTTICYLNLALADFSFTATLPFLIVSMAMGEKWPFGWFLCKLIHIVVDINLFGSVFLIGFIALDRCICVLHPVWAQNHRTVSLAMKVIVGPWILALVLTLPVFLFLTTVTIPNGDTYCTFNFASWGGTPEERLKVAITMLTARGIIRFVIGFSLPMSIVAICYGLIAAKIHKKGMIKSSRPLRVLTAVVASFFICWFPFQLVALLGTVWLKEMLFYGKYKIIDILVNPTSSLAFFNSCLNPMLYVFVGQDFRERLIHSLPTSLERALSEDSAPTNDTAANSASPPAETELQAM
Sequence of Cytochrome P450 2C9 (P11712 whole entry): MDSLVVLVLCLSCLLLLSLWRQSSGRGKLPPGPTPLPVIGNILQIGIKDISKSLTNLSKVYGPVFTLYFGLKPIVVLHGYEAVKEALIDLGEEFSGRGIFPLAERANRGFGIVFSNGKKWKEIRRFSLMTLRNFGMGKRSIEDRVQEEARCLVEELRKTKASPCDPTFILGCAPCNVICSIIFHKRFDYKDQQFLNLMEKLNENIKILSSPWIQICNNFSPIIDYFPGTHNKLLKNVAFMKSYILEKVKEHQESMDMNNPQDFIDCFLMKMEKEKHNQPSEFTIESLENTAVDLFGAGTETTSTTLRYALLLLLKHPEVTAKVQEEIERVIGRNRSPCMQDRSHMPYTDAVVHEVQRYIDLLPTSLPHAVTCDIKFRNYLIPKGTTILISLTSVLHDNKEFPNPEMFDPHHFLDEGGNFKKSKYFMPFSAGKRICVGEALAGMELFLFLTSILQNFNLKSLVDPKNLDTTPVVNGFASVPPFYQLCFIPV
Sequence of Voltage-gated inwardly rectifying potassium channel KCNH2 (Q12809 whole entry): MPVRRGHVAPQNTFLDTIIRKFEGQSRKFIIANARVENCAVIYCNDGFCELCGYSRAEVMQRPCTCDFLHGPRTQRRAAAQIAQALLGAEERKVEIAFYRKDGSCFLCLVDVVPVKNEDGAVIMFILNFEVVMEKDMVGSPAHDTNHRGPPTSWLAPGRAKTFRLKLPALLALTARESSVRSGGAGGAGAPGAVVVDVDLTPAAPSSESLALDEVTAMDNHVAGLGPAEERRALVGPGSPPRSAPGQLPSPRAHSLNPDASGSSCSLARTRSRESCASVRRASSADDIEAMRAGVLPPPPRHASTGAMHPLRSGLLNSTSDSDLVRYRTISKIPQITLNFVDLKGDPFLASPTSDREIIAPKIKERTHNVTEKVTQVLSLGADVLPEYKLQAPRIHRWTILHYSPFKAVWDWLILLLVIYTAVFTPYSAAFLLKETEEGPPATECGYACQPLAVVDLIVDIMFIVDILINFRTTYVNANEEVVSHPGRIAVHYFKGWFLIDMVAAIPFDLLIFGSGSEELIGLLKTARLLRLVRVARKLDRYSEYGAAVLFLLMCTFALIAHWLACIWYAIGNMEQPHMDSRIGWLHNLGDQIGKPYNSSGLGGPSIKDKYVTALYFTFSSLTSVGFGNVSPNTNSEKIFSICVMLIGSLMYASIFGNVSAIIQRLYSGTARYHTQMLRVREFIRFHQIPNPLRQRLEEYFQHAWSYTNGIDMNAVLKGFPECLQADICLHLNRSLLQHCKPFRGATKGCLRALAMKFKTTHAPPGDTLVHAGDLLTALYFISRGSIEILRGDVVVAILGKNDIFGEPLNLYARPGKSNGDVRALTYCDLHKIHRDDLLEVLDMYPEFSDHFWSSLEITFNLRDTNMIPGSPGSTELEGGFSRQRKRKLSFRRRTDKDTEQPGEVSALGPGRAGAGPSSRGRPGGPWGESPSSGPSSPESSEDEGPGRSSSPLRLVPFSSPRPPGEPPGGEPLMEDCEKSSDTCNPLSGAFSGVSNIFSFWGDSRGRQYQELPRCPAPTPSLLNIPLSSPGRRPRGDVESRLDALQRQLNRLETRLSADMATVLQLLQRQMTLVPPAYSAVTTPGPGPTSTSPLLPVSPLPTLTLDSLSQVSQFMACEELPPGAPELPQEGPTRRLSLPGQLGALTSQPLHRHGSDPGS
Sequence of C-C chemokine receptor type 7 (Homo sapiens) (P32248 whole entry): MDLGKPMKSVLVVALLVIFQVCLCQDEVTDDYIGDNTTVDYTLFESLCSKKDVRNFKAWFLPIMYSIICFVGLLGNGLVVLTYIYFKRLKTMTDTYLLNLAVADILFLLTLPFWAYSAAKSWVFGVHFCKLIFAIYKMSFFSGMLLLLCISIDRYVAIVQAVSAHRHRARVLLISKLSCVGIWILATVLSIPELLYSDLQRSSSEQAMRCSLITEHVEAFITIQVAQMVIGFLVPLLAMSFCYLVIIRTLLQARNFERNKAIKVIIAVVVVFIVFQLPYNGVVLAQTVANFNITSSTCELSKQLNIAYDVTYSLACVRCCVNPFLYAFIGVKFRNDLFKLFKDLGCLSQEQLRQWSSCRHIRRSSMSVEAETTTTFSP

Cc1ncn(CC(=O)N2CCN(c3sc(C(F)(F)F)nc3-c3cnc(C(F)(F)F)nc3)C[C@H]2CCO)n1
IC50 [1]: 0.0563 µM | IC50 [2]: 26 µM | microsomal CLint at 1 µM [3]: < 0.04 µL/min/mg | logD [4]: 2.3 | CLH [5]: < 2 µL/min/mg | CLH [6]: < 2 µL/min/mg | ka [7]: 6.6 10^6/M/s | Kdiss [8]: 0.03 s⁻¹ | Activity [9]: inactive | Activity [10]: inactive | Activity [11]: 35% | Activity [12]: 45% | concentration at 72 h [13]: 99 ng/mL | IC50 [14]: > 50 µM | Activity [15]: Not Active | inhibition (INH) [16]: Not Active | Activity [17]: Not Active | Stability [18]: Unstable | Stability [19]: Unstable | Stability [20]: Unstable | Stability [21]: Unstable | Stability [22]: Unstable | Stability [23]: Unstable | AUC(0-t) [24]: 4210 ng·h/mL | AUC(0-t) [25]: 3910 ng·h/mL | Cmax [26]: 910 ng/mL | bioavailability [27]: 89% | inhibition (INH) [28]: Non-Toxic | inhibition (INH) [29]: Non-Toxic | Activity [30]: Non-Toxic
